Structures can show the parent of a compound that is named as a salt.
Test system: MTT (mouse pheochromocytoma)
Test: IC50 of cell viability (ATP content)
Conditions: (24 or 48 h)
Summary of the method: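 MTT mouse pheochromocytoma cells were seeded into white 1536-well plates at 5 µl per well from a 200,000 cells/ml suspension in DMEM with 5% FBS and 1% horse serum, then cultured overnight at 37°C, 5% CO2. A pintool added 23 nl of library compound in DMSO at 8 concentrations (final 0.5 nM to 46 µM) for 24 or 48 hrs, and CellTiter-Glo ATP luminescence was read after 15 minutes. Signals were scaled so that positive-control wells equalled 100% and DMSO wells 0%. IC50 values were derived by fitting a four-parameter logistic curve.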

Row | SMILES | IC50 of cell viability [µM]
1 | NC[C@@H]1O[C@@H](O[C@H]2[C@@H](O)[C@H](O[C@@H]3O[C@@H](CO)[C@H](O)[C@H](N)[C@@H]3O)[C@@H](N)C[C@H]2N)[C@H](N)C[C@@H]1O [Tobramycin] | > 46
2 | Cc1cccc(C)c1NC(=O)[C@H](C)N [Tocainide hydrochloride] | > 46
3 | Cc1c(C)c2c(c(C)c1OC(=O)CCC(=O)OCCO)CC[C@](C)(CCC[C@H](C)CCC[C@H](C)CCCC(C)C)O2 [Tocofersolan] | > 46
4 | CCOC(=O)NNc1nncc2ccccc12 [Todralazine hydrochloride] | > 46
5 | C1C\N=C(\CC2=CC=CC=C2)N1 [Tolazoline hydrochloride] | > 46
6 | Cc1ccc(C(=O)c2ccc(CC(=O)[O-])n2C)cc1.O.O.[Na+] [Tolmetin sodium salt dihydrate] | > 46
7 | Cc1cccc(N(C)C(=S)Oc2ccc3ccccc3c2)c1 [Tolnaftate] | > 46
8 | Cc1ccc(C(=O)[C@H](C)CN2CCCCC2)cc1 [Tolperisone HCl] | > 46
9 | COc1ccc2c(C(=S)N(C)CC(=O)O)cccc2c1C(F)(F)F [Tolrestat] | > 46
10 | Cc1ccc(O)c([C@H](CCN(C(C)C)C(C)C)c2ccccc2)c1 [Tolterodina] | > 46
11 | Cc1cc(-n2c(=O)[nH]c(=O)n(C)c2=O)ccc1Oc1ccc([S+](=O)([O-])C(F)(F)F)cc1 [Toltrazuril sulfone] | > 46
12 | Cc1ccccc1 [Toluene] | > 46
13 | Cc1cc2nc3ccc(N(C)C)cc3[s+]c2cc1N [Toluidine blue] | > 46
14 | CNCCC(Oc1ccccc1C)c1ccccc1 (stereo not given) [Tomoxetine] | > 46
15 | Cc1cccc(Nc2ccncc2[S+](=O)([O-])NC(=O)NC(C)C)c1 [Torsemide] | > 46
16 | CCCCNc1c(C(=O)OCC)c(C)nc2c1cnn2CC [Tracazolate hydrochloride] | > 46
17 | CCON=C(CC)C/1=C(O)/CC(CC1=O)C2=C(C)C=C(C)C=C2C (stereo not given) [Tralkoxydim] | > 46
18 | COc1cccc([C@@]2(O)CCCC[C@@H]2CN(C)C)c1 [Tramadolum] | > 46
19 | CCOC(=O)[C@H](CCc1ccccc1)N[C@@H](C)C(=O)N1[C@H](C(=O)O)C[C@H]2CCCC[C@@H]21 [Trandolapril] | > 46
20 | NCC1CCC(C(=O)O)CC1 (stereo not given) [Tranexamic acid] | > 46
21 | COc1ccc(/C=C/C(=O)Nc2ccccc2C(=O)O)cc1OC [Tranilast] | > 46
22 | OCCOCCN1CCN(C(c2ccccc2)c2ccc(Cl)cc2)CC1 (stereo not given) [Tranquizine] | > 46
23 | N[C@@H]1C[C@H]1c1ccccc1 [Tranylcypromine hydrochloride] | > 46
24 | ClC1=CC(=CC=C1)N2CCN(CCCN3\N=C4\C=C/C=C\N4C3=O)CC2 [Trazodone hydrochloride] | > 46
25 | CC(=O)OCC(COC(C)=O)OC(C)=O [Triacetin] | > 46

Row | SMILES | IC50 of cell viability [µM]
26 | CC(C)(C)C(O)C(Oc1ccc(Cl)cc1)n1cncn1 (stereo not given) [Triadimenol] | > 46
27 | CC1(C)O[C@@H]2C[C@H]3[C@@H]4CCC/5=C/C(=O)/C=C\[C@]5(C)[C@@]4(F)[C@@H](O)C[C@]3(C)[C@@]2(O1)C(=O)CO [Triamcinolone acetonide] | > 46
28 | CC(=O)OCC(=O)[C@@]1(O)[C@@H](C[C@H]2[C@@H]3CC\C4=C\C(=O)\C=C/[C@]4(C)[C@@]3(F)[C@@H](O)C[C@]12C)OC(C)=O [Triamcinolone diacetate] | > 46
29 | CC(C)(C)CC(=O)OCC(=O)[C@@]12OC(C)(C)O[C@@H]1C[C@H]1[C@@H]3CCC4=CC(=O)C=C[C@]4(C)[C@@]3(F)[C@@H](O)C[C@]12C [Triamcinolone hexacetonide] | > 46
30 | Nc1nc(N)c2nc(-c3ccccc3)c(N)nc2n1 [Triamterene] | > 46
31 | CCO[C@H]1O[C@@H]([C@H](COCc2ccccc2)OCc2ccccc2)[C@@H](OCc2ccccc2)[C@@H]1O [Tribenoside] | > 46
32 | CCCCCCCC(=O)OCC(COC(=O)CCCCCCC)OC(=O)CCCCCCC [Tricaprylin] | > 46
33 | COP(=O)(OC)C(O)C(Cl)(Cl)Cl (stereo not given) [Trichlorfon] | > 46
34 | N[S+](=O)([O-])c1cc2c(cc1Cl)N[C@@H](C(Cl)Cl)N[S+]2(=O)[O-] [Trichlormethiazide] | > 46
35 | O=C(O)C(Cl)(Cl)Cl [Trichloroacetic acid] | > 46
36 | ClC=C(Cl)Cl [Trichloroethylene] | > 46
37 | O=C(O)COc1nc(Cl)c(Cl)cc1Cl [Triclopyr] | > 46
38 | Oc1cc(Cl)ccc1Oc1ccc(Cl)cc1Cl [Triclosan] | > 46
39 | NCCNCCNCCN [Triethylenetetramine] | > 46
40 | Cl.O=C(CCCN1CCC(O)(c2cccc(C(F)(F)F)c2)CC1)c1ccc(F)cc1 [Trifluperidol hydrochloride] | > 46
41 | O=c1[nH]c(=O)n(C2C[C@H](O)[C@@H](CO)O2)cc1C(F)(F)F (stereo not given in full) [Trifluridine] | > 46
42 | CC(=O)Oc1cc(C(F)(F)F)ccc1C(=O)O [Triflusal] | > 46
43 | NC(Cc1ccc(Oc2cc(I)c(O)c(I)c2)c(I)c1)C(=O)O (stereo not given) [Triiodothyronine, reverse] | > 46
44 | C[C@@H](CN(C)C)CN1c2ccccc2Sc2ccccc21.C[C@@H](CN(C)C)CN1c2ccccc2Sc2ccccc21.O=C(O)[C@@H](O)[C@@H](O)C(=O)O [Trimeprazine tartrate] | > 46
45 | COc1ccc(CN2CCNCC2)c(OC)c1OC [Trimetazidine dihydrochloride] | > 46
46 | CN1C(=O)OC(C)(C)C1=O [Trimethadione] | > 46
47 | COc1cc(C(=O)NCc2ccc(OCCN(C)C)cc2)cc(OC)c1OC [Trimethobenzamide hydrochloride] | > 46
48 | COc1cc(Cc2cnc(N)nc2N)cc(OC)c1OC [Trimethoprim] | > 46
49 | COc1cc(C[C@H]2NCCc3cc(O)c(O)cc32)cc(OC)c1OC [Trimethoquinol] | > 46
50 | COc1cc(C(=O)N2CCOCC2)cc(OC)c1OC [Trimetozine] | > 46

Row | SMILES | IC50 of cell viability [µM]
51 | C[C@@H](CN(C)C)CN1c2ccccc2CCc2ccccc21 [Trimipramine maleate salt] | > 46
52 | CC1=CC2=C(O1)C(=C3OC(=O)\C=C(C)/C3=C2)C [Trioxsalen] | > 46
53 | CCCCCCCCCCCCCCCC(=O)OCC(COC(=O)CCCCCCCCCCCCCCC)OC(=O)CCCCCCCCCCCCCCC [Tripalmitin] | > 46
54 | CC1(C)CC/C(=C\c2ccc(Cl)cc2)C1(O)Cn1cncn1 (stereo not given) [Triticonazole] | > 46
55 | COc1cc(C(=S)N2CCOCC2)cc(OC)c1OC [Tritiozina] | > 46
56 | CC(C)(C)CC(C)(C)c1ccc(OCCO)cc1 [Triton X-100] | > 46
57 | Cc1c(C)c2c(c(C)c1O)CCC(C)(COc1ccc(CC3SC(=O)NC3=O)cc1)O2 (stereo not given) [Troglitazone] | > 46
58 | OCCN(CCO)CCO [Trolamine] | > 46
59 | CO[C@@H]1C[C@H](O[C@H]2[C@H](C)[C@H](O[C@@H]3O[C@@H](C)C[C@@H](N(C)C)[C@H]3OC(C)=O)[C@H](C)C[C@]3(CO3)C(=O)[C@H](C)[C@H](OC(C)=O)[C@H](C)[C@H](C)OC(=O)[C@@H]2C)O[C@H](C)[C@H]1OC(C)=O [Troleandomycin] | > 46
60 | N#CC(C#N)=Cc1ccc(O)c(O)c1 [Tyrphostin 23] | > 46
61 | N#CC(C#N)=Cc1cc(O)c(O)c(O)c1 [Tyrphostin 25] | > 46
62 | BrC1=C2N=CC=NC2=CC=C1N\C3=N\CCN3 [UK 14,304] | > 46
63 | Oc1ncc(N(CCCl)CCCl)c(O)n1 [URACIL MUSTARD] | > 46
64 | Oc1ccnc(O)n1 [URACIL] | > 46
65 | COC1=C(C=CC=C1)N2CCN(CCCN\C3=C\C(=O)N(C)C(=O)N3C)CC2 [URAPIDIL] | > 46
66 | CCOC(N)=O [URETHANE] | > 46
67 | Oc1nc(O)c2nc(O)[nH]c2n1.[NaH] [URIC ACID] | > 46
68 | COC1=C(OC)C(=O)C(C/C=C(\C)CC/C=C(\C)CC/C=C(\C)CC/C=C(\C)CC/C=C(\C)CC/C=C(\C)CC/C=C(\C)CC/C=C(\C)CC/C=C(\C)CCC=C(C)C)=C(C)C1=O [Ubidecarenone] | > 46
69 | O=C(Nc1ccc(/C=C/c2ccc(NC(=O)c3cc([S+](=O)([O-])O)c4cccnc4c3O)cc2[S+](=O)([O-])O)c([S+](=O)([O-])O)c1)c1cc([S+](=O)([O-])O)c2cccnc2c1O [Ubistatin A] | > 46
70 | C=CCCCCCCCCC(=O)O [Undecylenic acid] | > 46
71 | CCCCCCCC(=O)CC[C@H]1[C@@H](C/C=C/CCCC(=O)OC(C)C)[C@@H](O)C[C@H]1O [Unoprostone Isopropyl Ester] | > 46
72 | Cl.COC1=C(C=CC=C1)N2CCN(CCCNC/3=C/C(=O)N(C)C(=O)N3C)CC2 [Urapidil hydrochloride] | > 46
73 | NC(N)=O [Urea] | > 46
74 | Oc1nc(O)c2[nH]c(O)nc2n1 [Uric acid] | > 46
75 | Cc1onc(-c2ccccc2)c1-c1ccc([S+](N)(=O)[O-])cc1 [VALDECOXIB] | > 46
